Among the data in patent publication US8940739B2, “Compound of a reverse-turn mimetic and a production method and use therefor” (JW Pharmaceutical Corporation, priority 2010, dated 2015) are GI50 and IC50 values, retold here.

Sequence of cDNA-expressed human hepatic CYP3A4 (P08684 whole entry): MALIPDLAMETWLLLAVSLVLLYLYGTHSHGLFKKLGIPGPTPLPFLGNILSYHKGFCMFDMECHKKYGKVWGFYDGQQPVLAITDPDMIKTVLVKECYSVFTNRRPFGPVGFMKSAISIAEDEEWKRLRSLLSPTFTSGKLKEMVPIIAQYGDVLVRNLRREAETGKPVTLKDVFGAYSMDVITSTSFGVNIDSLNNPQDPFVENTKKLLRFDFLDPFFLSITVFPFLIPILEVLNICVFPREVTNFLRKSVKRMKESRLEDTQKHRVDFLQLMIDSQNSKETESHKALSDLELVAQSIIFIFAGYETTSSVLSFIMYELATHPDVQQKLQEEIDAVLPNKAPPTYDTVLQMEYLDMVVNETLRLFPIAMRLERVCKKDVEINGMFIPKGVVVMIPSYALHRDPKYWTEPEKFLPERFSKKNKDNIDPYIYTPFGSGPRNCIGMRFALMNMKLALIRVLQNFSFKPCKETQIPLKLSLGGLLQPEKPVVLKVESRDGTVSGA

One data set has as its system MV-4-11 (human, Acute Myeloid Leukemia cell line) cells. In words: Cell growth inhibition assay, GI50 of MV-4-11. To be noted: Homo sapiens, MV4-11, 72 h, MV-4-11 cells. The class given is cell-based. The procedure: The anti-proliferative activity (cell growth inhibition assay) of the compounds according to the present invention against AML (Acute Myeloid Leukemia) cancer cells was measured. […] The lower the GI50 value, the higher the anti-proliferative activity.
A cell growth Inhibition assay was performed to investigate the rate of inhibition of cell proliferation by the compounds of the present invention. MV-4-11 (human, Acute Myeloid Leukemia cell line) cells were cultured in Iscove's modified Dulbecco's medium (IMDM) including 10% fetal bovine serum (FBS), 1× penicillin/streptomycin (10,000 units/ml Penicillin, […] Streptomycin in 0.85% NaCl). MV-4-11 cells were harvested with the IMDM and 5×10^4 cells/well were transferred to each well of 96-well culture plates (Nunc, #167008).
The compounds of Examples 1 to 5 were exposed to serial dilution and duplicated for each concentration. For the serial dilution, the compounds of the present invention were repeatedly diluted with the same volume of media onto 96-well assay block (costar, #3956). After the dilution, each compound was added to each well.
Also, the background absorbance was measured during the treatment with the test compounds by replacing the test compound with IMDM in the negative control plate. The plates were incubated for three days (72 hours) at 37 in the humidified incubator containing 5% CO2. On the last day, 20 µl of a CellTiter 96 Aqueous One Solution (Promega #G3581) was added to the culture in each well and the plates were incubated for a few hours at 37 in the humidified incubator containing 5% CO2. After the incubation, the absorbance of each cell was measured at 490 nm using an EnVision (Perkinelmer, USA).
The GI50 values were calculated using a Prism 3.0 program.
The term GI50 denotes the concentration at which growth is held to half of that of the control. For `C=CCN1CC(=O)N2[C@@H](Cc3ccc(O)cc3)C(=O)N(Cc3cccc4c(-c5ccc(C(=O)NN(C)C)cc5)cn(C)c34)C[C@@H]2N1C(=O)NCc1ccccc1` [Compound D-36], halving of growth (GI50) required 0.0012 µM.

`C=CCN1CC(=O)N2[C@@H](Cc3ccc(O)cc3)C(=O)N(Cc3cccc4c(C(=O)N5CCN(c6ccc(O)cc6)CC5)cn(C)c34)C[C@@H]2N1C(=O)NCc1ccccc1` [Compound E-40]: halving of growth (GI50) required 0.0154 µM.

`C=CCN1CC(=O)N2[C@@H](Cc3ccc(O)cc3)C(=O)N(Cc3cccc4c(C(=O)N(C)CCNC5CC5)cn(C)c34)C[C@@H]2N1C(=O)NCc1ccccc1` [Compound F-11] gave a GI50 of 0.0104 µM.

For the compound `C=CCN1CC(=O)N2[C@@H](Cc3ccc(O)cc3)C(=O)N(Cc3cccc4c(C(=O)N5CCN(Cc6ccc(C#N)cc6)CC5)cn(C)c34)C[C@@H]2N1C(=O)NCc1ccccc1` [Compound E-33], the GI50 was found to be 0.009 µM.

As to `C=CCN1CC(=O)N2[C@@H](Cc3ccc(O)cc3)C(=O)N(Cc3cccc4c(C(=O)N(C)Cc5ccncc5)cn(C)c34)C[C@@H]2N1C(=O)NCc1ccccc1` [Compound F-40], halving of growth (GI50) required 0.0172 µM.

For the compound `C=CCN1CC(=O)N2[C@@H](Cc3ccc(O)cc3)C(=O)N(Cc3cccc4c(-c5cccc(C(=O)N6CCN(C)CC6)c5)cn(C)c34)C[C@@H]2N1C(=O)NCc1ccccc1` [Compound D-2], the GI50 was found to be 0.0013 µM.

In turn, `C=CCN1CC(=O)N2[C@@H](Cc3ccc(O)cc3)C(=O)N(Cc3cccc4c(C(=O)N5CCN6CCN(CC7CCCCC7)CC6C5)cn(C)c34)C[C@@H]2N1C(=O)NCc1ccccc1` (some centres unmarked) [Compound E-46] came in with a 50% growth inhibitory concentration (GI50) of 0.002 µM.

For `C=CCN1CC(=O)N2[C@@H](Cc3ccc(O)cc3)C(=O)N(Cc3cccc4c(-c5ccc(NC(=O)CCCNCC(N)=O)cc5)cn(C)c34)C[C@@H]2N1C(=O)NCc1ccccc1` [Compound D-71], the GI50 came to 0.0019 µM.

`C=CCN1CC(=O)N2[C@@H](Cc3ccc(O)cc3)C(=O)N(Cc3cccc4c(-c5ccc(NC(=O)CCCN)cc5)cn(C)c34)C[C@@H]2N1C(=O)NCc1ccccc1` [Compound D-70] gave a GI50 of 0.0044 µM.

For `C=CCN1CC(=O)N2[C@@H](Cc3ccc(O)cc3)C(=O)N(Cc3cccc4c(-c5ccc(NC(=O)NC6CCCCC6)nc5)cn(C)c34)C[C@@H]2N1C(=O)NCc1ccccc1` [Compound D-92], growth was halved (GI50) at 0.019 µM.

In turn, `C=CCN1CC(=O)N2C(CN(Cc3cccc4c(C(=O)Nc5ccc(SC)cc5)cn(C)c34)C(=O)[C@@H]2Cc2ccc(O)cc2)N1C(=O)NCc1ccccc1` (some centres unmarked) [Compound G-7] displayed a GI50 of 0.0105 µM.

`C=CCN1CC(=O)N2C(Cc3ccc(O)cc3)C(=O)N(Cc3cccc4c(C(=O)Nc5ccc(N(C)CC(C)C)nc5)cn(C)c34)CC2N1C(=O)NCc1ccccc1` (centres unmarked) [Compound G-17] came in with a GI50 of 0.002 µM.

Turning to `C=CCN1CC(=O)N2[C@@H](Cc3ccc(O)cc3)C(=O)N(Cc3cccc4c(C(=O)N5CCN(Cc6ccncc6)CC5)cn(C)c34)C[C@@H]2N1C(=O)NCc1ccccc1` [Compound E-30], it took 0.0144 µM to inhibit growth by half (GI50).

The compound `C=CCN1CC(=O)N2[C@@H](Cc3ccc(O)cc3)C(=O)N(Cc3cccc4c(-c5ccc(C(=O)NN6C(C)CNCC6C)cc5)cn(C)c34)C[C@@H]2N1C(=O)NCc1ccccc1` (stereo partly drawn) [Compound D-32] showed a 50% growth inhibitory concentration (GI50) of 0.0013 µM.

For the compound `C=CCN1CC(=O)N2C(Cc3ccc(O)cc3)C(=O)N(Cc3cccc4c(C(=O)Nc5ccc(NCCN6CCN(C)CC6)nc5)cn(C)c34)CC2N1C(=O)NCc1ccccc1` (centres unmarked) [Compound G-30], the GI50 was 0.005 µM.

`C=CCN1CC(=O)N2[C@@H](Cc3ccc(O)cc3)C(=O)N(Cc3cccc4c(-c5ccc(NC(=O)N6CCC(N7CCOCC7)CC6)cc5)cn(C)c34)C[C@@H]2N1C(=O)NCc1ccccc1` [Compound D-64]: the GI50 was found to be 0.0012 µM.

In turn, `C=CCN1CC(=O)N2[C@@H](Cc3ccc(O)cc3)C(=O)N(Cc3cccc4c(-c5ccc(NC(=O)c6ccc(-n7ccnc7)nc6)cc5)cn(C)c34)C[C@@H]2N1C(=O)NCc1ccccc1` [Compound D-68] registered a GI50 of 0.0014 µM.

`C=CCN1CC(=O)N2[C@@H](Cc3ccc(O)cc3)C(=O)N(Cc3cccc4c(-c5ccc(C(=O)N6CCN(C)CC6)cc5)cn(C)c34)C[C@@H]2N1C(=O)NCc1ccccc1` [Compound D-3] gave a GI50 of 0.0001 µM.

In the case of `C=CCN1CC(=O)N2[C@@H](Cc3ccc(O)cc3)C(=O)N(Cc3cccc4c(C(=O)N5CCN6CCN(CC7CCC7)CC6C5)cn(C)c34)C[C@@H]2N1C(=O)NCc1ccccc1` (some centres unmarked) [Compound E-49], halving of growth (GI50) required 0.0069 µM.

In turn, `C=CCN1CC(=O)N2[C@@H](Cc3ccc(O)cc3)C(=O)N(Cc3cccc4c(-c5ccc(C(=O)NN6CCOCC6)cc5)cn(C)c34)C[C@@H]2N1C(=O)NCc1ccccc1` [Compound D-43] showed a GI50 of 0.0012 µM.

As for `C=CCN1CC(=O)N2[C@@H](Cc3ccc(O)cc3)C(=O)N(Cc3cccc4c(-c5ccc(C(=O)N(C)CCN(C)C)cc5)cn(C)c34)C[C@@H]2N1C(=O)NCc1ccccc1` [Compound D-40], the GI50 came to 0.0012 µM.

Staying with this data set, now noted: MV-4-11 cells, 72 hours; read-out: MV4-11 GI50.
For `C=CCN1CC(=O)N2[C@@H](Cc3ccc(O)cc3)C(=O)N(Cc3cccc4c(C(=O)N5CCN(Cc6ccccn6)CC5)cn(C)c34)C[C@@H]2N1C(=O)NCc1ccccc1` [Compound E-29], the GI50 was determined as 0.0184 µM.

In another data set the target is cDNA-expressed human hepatic CYP3A4 (Homo sapiens (Human), UniProt P08684). In words: Measurement of CYP (IC50 of P450 CYP3A4), BFC substrate. It counts as in vitro ADME. To be noted: 20 minutes. On the procedure:
The compounds of the present invention had lower P450 CYP3A4 inhibitory activity (higher IC50). Lower CYP3A4 inhibitory activity means that the compounds of the present invention cause fewer side-effects from the pharmacological point of view.
This assay was performed in a 200 l volume in 96-well microtiter plates using cDNA-expressed human hepatic CYP3A4 (supersome, BD Gentest™ #456202). As a substrate for CYP3A4, 7-benzyloxy-4-trifluoromethyl-coumarin (BFC) was used. The compounds of Examples 1 to 5 and the substrate BFC were dissolved in 100% acetonitrile. The final volume of acetonitrile of the incubation mixture was less than 1% (volume/volume). A potassium phosphate buffer (pH 7.4, final concentration 0.1M), MgCl2 (final concentration 8.3 mM), EDTA (final concentration 1.67 mM), an inventive compound stock solution, CYP3A4 supersome, and NADPH (final concentration 0.25 mM) were added to each well. The reaction was initiated by adding the substrate (BFC, final concentration 30 µM) at 37. The incubation was performed for 20 minutes and then the reaction was terminated by the addition of 75 μl of acetonitrile: 0.5 M tris-base=4:1 (volume/volume).
Then, a fluorescent signal was measured using a fluorometer. A BFC metabolite, 7-hydroxy-4-trifluoromethyl-coumarin, was measured using an excitation wavelength of 409 nm and an emission wavelength of 530 nm.
By IC50 is commonly meant the concentration that inhibits the measured activity by half. Lower therefore signals greater potency. `C=CCN1CC(=O)N2[C@@H](Cc3ccc(O)cc3)C(=O)N(Cc3cccc4c(C(=O)NCCN5CCN(C)CC5)cn(C)c34)C[C@@H]2N1C(=O)NCc1ccccc1` [Compound F-27] came in with an IC50 of 11.5 µM.

In turn, `C=CCN1CC(=O)N2[C@@H](Cc3ccc(O)cc3)C(=O)N(Cc3cccc4c(C(=O)N5CCN(C6CCN(C)CC6)CC5)cn(C)c34)C[C@@H]2N1C(=O)NCc1ccccc1` [Compound E-64] registered an IC50 of 8.55 µM.

`C=CCN1CC(=O)N2[C@@H](Cc3ccc(O)cc3)C(=O)N(Cc3cccc4c(C(=O)N5CCN(S(=O)(=O)CC)CC5)cn(C)c34)C[C@@H]2N1C(=O)NCc1ccccc1` [Compound E-16] registered an IC50 of 2.82 µM.

The compound `C=CCN1CC(=O)N2[C@@H](Cc3ccc(O)cc3)C(=O)N(Cc3cccc4c(C(=O)NCCCC(=O)OC)cn(C)c34)C[C@@H]2N1C(=O)NCc1ccccc1` [Compound F-23] gave an IC50 of 3.46 µM. The IC50 values of the last two compounds are within 1.5-fold of each other.

Compound `C=CCN1CC(=O)N2[C@@H](Cc3ccc(O)cc3)C(=O)N(Cc3cccc4c(C(=O)N5CC(N6CCOCC6)C5)cn(C)c34)C[C@@H]2N1C(=O)NCc1ccccc1` [Compound E-72] registered an IC50 of 5.99 µM.

In turn, `C=CCN1CC(=O)N2[C@@H](Cc3ccc(O)cc3)C(=O)N(Cc3cccc4c(-c5ccc(C(=O)Nc6ccc(OCCCC)cc6)cc5)cn(C)c34)C[C@@H]2N1C(=O)NCc1ccccc1` [Compound D-23] yielded an IC50 of over 25 µM.

For `C=CCN1CC(=O)N2[C@@H](Cc3ccc(O)cc3)C(=O)N(Cc3cccc4c(C(=O)NC5CCN(C(C)=O)CC5)cn(C)c34)C[C@@H]2N1C(=O)NCc1ccccc1` [Compound F-64], the IC50 was determined as 5.12 µM.

In the case of `C=CCN1CC(=O)N2[C@@H](Cc3ccc(O)cc3)C(=O)N(Cc3cccc4c(C(=O)N5CCN(CCCO)CC5)cn(C)c34)C[C@@H]2N1C(=O)NCc1ccccc1` [Compound E-11], the IC50 was determined as 11.3 µM.

In the case of `C=CCN1CC(=O)N2[C@@H](Cc3ccc(O)cc3)C(=O)N(Cc3cccc4c(C(=O)NN5CCCC5)cn(C)c34)C[C@@H]2N1C(=O)NCc1ccccc1` [Compound F-56], half-maximal inhibition (IC50) was put at 17.4 µM.

Consider `C=CCN1CC(=O)N2[C@@H](Cc3ccc(O)cc3)C(=O)N(Cc3cccc4c(C(=O)N5CCC6CN(C)CC65)cn(C)c34)C[C@@H]2N1C(=O)NCc1ccccc1` (some centres unmarked) [Compound E-69], for which the midpoint of inhibition, the IC50, lay at 4.49 µM.
